“And” between values parts separate entries of the source, which are not always exact repeats. Equal entries are not always repeated.
How the values were obtained:
[1] = organism: Rattus norvegicus; experiment: Bioconversion to albendazole in rats at 12 hr; detectable; assay type: functional, organism-based
[2] = organism: Rattus norvegicus; experiment: Bioconversion to albendazole in rats at 8 hr; detectable; assay type: functional, organism-based
[3] = organism: Rattus norvegicus; experiment: Bioconversion to albendazole in rats at 12 hr; assay type: functional
[4] = organism: Rattus norvegicus; experiment: Bioconversion to albendazole sulfonic in rats at 10 hr; assay type: functional
[5] = organism: Rattus norvegicus; experiment: Bioconversion to albendazole sulfonic in rats at 4 hr; assay type: functional
[6] = organism: Rattus norvegicus; experiment: Bioconversion to albendazole sulfonic in rats at 2 hr; assay type: functional
[7] = organism: Rattus norvegicus; experiment: Bioconversion to albendazole sulfonic in rats at 8 hr; assay type: functional
[8] = organism: Rattus norvegicus; experiment: Bioconversion to albendazole in rats at 10 hr; detectable; assay type: functional, organism-based
[9] = organism: Rattus norvegicus; experiment: Bioconversion to albendazole in rats at 2 hr; detectable; assay type: functional, organism-based
[10] = organism: Rattus norvegicus; experiment: Bioconversion to albendazole in rats at 2 hr; assay type: functional
[11] = organism: Rattus norvegicus; experiment: Bioconversion to albendazole in rats at 4 hr; detectable; assay type: functional, organism-based
[12] = organism: Rattus norvegicus; experiment: Bioconversion to albendazole sulfonic in rats at 6 hr; assay type: functional
[13] = organism: Rattus norvegicus; experiment: Bioconversion to albendazole in rats at 6 hr; detectable; assay type: functional, organism-based
[14] = organism: Rattus norvegicus; experiment: Bioconversion to albendazole in rats at 2 hr; not detectable; assay type: functional, organism-based
[15] = organism: Rattus norvegicus; experiment: Bioconversion to albendazole in rats at 12 hr; not detectable; assay type: functional, organism-based
[16] = organism: Rattus norvegicus; experiment: Bioconversion to albendazole sulfonic in rats at 4 hr; not detectable; assay type: functional, organism-based
[17] = organism: Rattus norvegicus; experiment: Bioconversion to albendazole sulfonic in rats at 6 hr; not detectable; assay type: functional, organism-based
[18] = organism: Rattus norvegicus; experiment: Bioconversion to albendazole sulfonic in rats at 8 hr; not detectable; assay type: functional, organism-based
[19] = organism: Rattus norvegicus; experiment: Bioconversion to albendazole in rats at 4 hr; not detectable; assay type: functional, organism-based
[20] = organism: Rattus norvegicus; experiment: Bioconversion to albendazole sulfonic in rats at 12 hr; not detectable; assay type: functional, organism-based
[21] = organism: Rattus norvegicus; experiment: Bioconversion to albendazole in rats at 8 hr; not detectable; assay type: functional, organism-based
[22] = organism: Rattus norvegicus; experiment: Bioconversion to albendazole in rats at 8 hr; assay type: functional
[23] = organism: Rattus norvegicus; experiment: Bioconversion to albendazole sulfonic in rats at 12 hr; assay type: functional
[24] = organism: Rattus norvegicus; experiment: Bioconversion to albendazole sulfonic in rats at 8 hr; detectable; assay type: functional, organism-based
[25] = organism: Rattus norvegicus; experiment: Bioconversion to albendazole sulfonic in rats at 2 hr; not detectable; assay type: functional, organism-based
[26] = organism: Rattus norvegicus; experiment: Bioconversion to albendazole sulfonic in rats at 10 hr; not detectable; assay type: functional, organism-based
[27] = organism: Rattus norvegicus; experiment: Bioconversion to albendazole in rats at 6 hr; not detectable; assay type: functional, organism-based

Structure (SMILES)	Activity [1]	Activity [2]	Activity [4]	Activity [5]	Activity [6]	Activity [8]	Activity [9]	Activity [12]	Activity [13]	Activity [17]	Activity [18]	Activity [19]	Activity [23] [µg/mL]	Activity [26]	also measured
CCCSc1ccc2[nH]c(NC(=O)OC)nc2c1 [ALBENDAZOLE]	Detectable	Detectable	0.2696 µg/mL and 0.1297 µg/mL	0.3084 µg/mL and 0.1935 µg/mL	0.593 µg/mL and 0.245 µg/mL	Detectable	Detectable	0.2875 µg/mL and 0.4081 µg/mL	Detectable						Activity [3]: 0.098 µg/mL; Activity [7]: 0.28 µg/mL and 0.1113 µg/mL; Activity [10]: 0.055 µg/mL; Activity [11]: Detectable
CCCSc1ccc([N+](=O)[O-])c(NC(=S)NC(=O)OC)c1			0.0889 µg/mL	0.096 µg/mL		Detectable				Not detectable	Not detectable	Not detectable	0.1622	Not detectable	Activity [14]: Not detectable; Activity [15]: Not detectable; Activity [16]: Not detectable; Activity [20]: Not detectable; Activity [21]: Not detectable; Activity [22]: 0.0792 µg/mL; Activity [24]: Detectable; Activity [25]: Not detectable
CCCSc1ccc(NC(=S)NC(=O)OC)c([N+](=O)[O-])c1	Detectable	Detectable		0.0927 µg/mL and 0.0958 µg/mL	0.1802 µg/mL and 0.1088 µg/mL	Detectable	Detectable	0.1633 µg/mL	Detectable	Not detectable	Not detectable	Not detectable	0.2704	Not detectable	Activity [27]: Not detectable

— ChEMBL document CHEMBL1129169, “Preparation of N-methoxycarbonyl-N-[2-nitro-4(5)-propylthiophenyl]thiourea as prodrugs of albendazole” (1996)
